Values quoted from earlier work, collected in patent publication US7205008B2, “Methods of treating Alzheimer's disease and other amyloidoses using Hypericum perforatum and derivatives thereof” (ProteoTech, Inc., priority 2000, dated 2007).

## Cc1cc(O)c2c(=O)c3c(O)cc(O)c4c5c(O)cc(O)c6c(=O)c7c(O)cc(C)c8c1c2c(c34)c(c78)c65 [hypericin]
After swallowing a pill of Hypericum perforatum, estimated
  fraction of hypericin absorbed: about 20%
Dose of 0.75 mg of hypericin
  time it lasts in the bloodstream: more than a day
